molecular target: T1, Phospholipase A2, membrane associated (Homo sapiens, UniProt P14555); assay: Inhibition of human non-pancreatic sPLA2 using 1,2-dimyristoyl-sn-glycero-3-phosphocholine substrate after 5 mins by continuous fluorescence assay; settings: not given
T1 sequence (P14555 whole entry): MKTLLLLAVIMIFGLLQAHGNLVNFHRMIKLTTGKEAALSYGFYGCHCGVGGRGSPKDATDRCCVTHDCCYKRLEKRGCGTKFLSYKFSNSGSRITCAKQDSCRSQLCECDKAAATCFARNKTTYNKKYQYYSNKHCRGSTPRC

IC50	SMILES
Not Active	COC(=O)c1c2c(nc3ccc(Cl)cc13)CCCC2
Not Active	COC(=O)c1c2c(nc3ccccc13)CCCC2
Not Active	COC(=O)c1c2c(nc3ccc(F)cc13)CCCC2
Not Active	CCCCCOc1ccc(-c2cc(C(=O)OC)c3cc(OC)ccc3n2)cc1
Not Active	CCCCCCOc1ccc(-c2cc(C(=O)OC)c3cc(OC)ccc3n2)cc1

same assay, conditions: read-out: IC50

SMILES	IC50
COC(=O)c1cc(-c2ccc(OC)cc2)nc2ccc(OC)cc12	15 µM
CCCOc1ccc(-c2cc(C(=O)OC)c3cc(OC)ccc3n2)cc1	27 µM
CCCCOc1ccc(-c2cc(C(=O)OC)c3cc(OC)ccc3n2)cc1	57 µM
COc1ccc2c(c1)c(CC(N)=O)c(C)n2Cc1ccccc1	1 µM

Other lines, results leading:

IC50	SMILES
8.1 µM	COC(=O)c1cc(-c2ccc(OC)cc2)nc2ccc(Cl)cc12
1.8 µM	COC(=O)c1cc(CCc2ccccc2)nc2ccc(Cl)cc12
2.9 µM	COC(=O)c1c(-c2ccccc2)c(C)nc2ccc(Cl)cc12
2.8 µM	COC(=O)c1c(Cc2ccccc2)c(C)nc2ccc(Cl)cc12
2.3 µM	COC(=O)c1cc(Cc2ccccc2OC)nc2ccc(F)cc12
6 µM	COC(=O)c1cc(-c2ccc(OC)cc2)nc2ccc(F)cc12
16 µM	COC(=O)c1c(Cc2ccccc2)c(C)nc2ccc(F)cc12
12 µM	COC(=O)c1cc(CCc2ccccc2)nc2ccc(F)cc12
34 µM	COC(=O)c1c(Cc2ccccc2)c(C)nc2ccc(OC)cc12
1.5 µM	COC(=O)c1cc(CCc2ccccc2)nc2ccc(OC)cc12
44 µM	CCCCOc1ccc(-c2cc(C(=O)OC)c3ccccc3n2)cc1
2 µM	COC(=O)c1cc(-c2ccccc2)nc2ccc(OC)cc12
